Measurements: patent publication US20060069043A1, “Chiral separation, characterization and biological action of optically active isomers of digoxin” (priority 2004, published 2006)
Read-outs that look alike come from different tables or passages of the source.

Legend:
[1] = tested on: gram-negative and gram-positive bacteria; conditions: against both gram-negative and gram-positive bacteria; cited from earlier work
serum protein [2] = test: Free fraction by centrifugation; format: in vitro ADME; conditions: for fraction unbound at 60 min: centrifugation time 60 minutes
Protocol: Free fraction of digitoxin increased with centrifugation time from 18% at 10 minutes to 37% at 80 minutes (500 g) without reaching plateau levels.

serum protein [3] = test: Serum protein binding by equilibrium dialysis; format: in vitro ADME, patients; conditions: human, read-out: digitoxin binding (protein binding), mean (converted)
Protocol: Equilibrium was obtained after 16 hours when titrated glycoside was added to serum. When added to the buffer phase, equilibrium was reached after 60 hours. Distribution of digitoxin, for example, in buffer-buffer control, was around 50% (49.4 to 50.6%). Absorption of ^3H-labeled glycoside to the dialysis membrane was 0.2% of the added ^3H-glycoside. Digitoxin protein binding was dependent on albumin content. […] No trace of protein was found when adding concentrated perchloric acid to the buffer phase. Counting efficacy was the same whether serum or buffer aliquots were added to the counting fluid. The counting error for buffer samples containing the smallest amount of radioactivity was 1% to 1.5%. Chamber equilibrium dialysis gave similar results. […] No significant change in digitoxin binding was found when the sera from 9 patients were dialyzed at 20° C. (mean, 96.7%) and at 37° C. (mean, 96.9%). Digoxin isolates will be used under similar conditions.

serum protein [4] = test: In vitro drug studies: ability to induce changes in digitoxin serum protein binding; format: in vitro ADME; conditions: procainamide 5 mg/ml, phenytoin 50 mg/ml, heparin 5 IU/ml, rifampicillin 4.5 μg/ml
Protocol: The ability to induce changes in digitoxin serum protein binding was tested for the following drugs: procainamide (5 mg/ml), phenytoin (50 mg/ml), heparin (5 IU/ml), and rifampicillin (4.5 μg/ml). […] Identical procedures will be used for digoxin isolates.

guinea pig = test: Effect on PR interval (AV node conduction) and cardiac contractibility in anesthetized open-chest guinea pig; format: in vivo; conditions: pentobarbital anesthesia, IV infusion at 6 μg/kg/min continuously
Protocol: The guinea pig or rat is anesthetized with pentobarbital at 40 mg/kg IP, then connected to an EKG recorder. The animal is then placed on a small animal respirator. Aseptic surgical instruments are soaked in ethanol and then flamed. An incision is made in the chest wall to open the chest. A Walton Brody stain gauge arch is sutured to the right ventricle to measure contractile changes. The refractoriness of the AV node is determined by measuring the PR interval on the surface EKG. Graphs can be created from the data displaying the dose related change in the PR interval to the dose related contractile augmentation. Digoxin or chiral isolates are infused through the jugular vein at concentrations (from 0.1 μM and then to 10 μM) at a constant rate by infusion pump, to determine the differential effects on the AV node and cardiac contractibility. The infusions are continued to a 50% level augmentation in contractibility or the development of ventricular tachycardia. To maintain a consistent level of anesthesia, pentobarbital 20 mg/kg IP or 10 mg/kg IV for more immediate action at 30-minute intervals may be administered.
The effect of digoxin and one of the two chiral isomers was evaluated in the guinea pig. Guinea pigs were anesthetized with pentobarbital. […] An EKG was continuously recorded. Conduction through the AV node was determined by measuring the PR interval on the surface EKG. […]

In the case of `CC1COc2c(N3CCN(C)CC3)c(F)cc3c(=O)c(C(=O)O)cn1c23` (single isomer, unassigned; (-)) [(−)-Ofloxacin], the “activity relative to the racemate” value [1] is listed as 8-128 times.
Molecule `C[C@H]1O[C@@H](O[C@H]2[C@@H](O)C[C@H](O[C@H]3[C@@H](O)C[C@H](O[C@H]4CC[C@@]5(C)[C@H](CC[C@@H]6[C@@H]5CC[C@]5(C)[C@@H](C7=CC(=O)OC7)CC[C@]65O)C4)O[C@@H]3C)O[C@@H]2C)C[C@H](O)[C@@H]1O` [digitoxin] has a fraction unbound at 10 min (serum protein [2]; centrifugation time 10 minutes, 500 g) of 0.18, a fraction unbound at 60 min (serum protein [2]; 135 g) of 0.059 and a fraction unbound at 60 min (serum protein [2]; 560 g) of 0.157. It also gave a fraction unbound at 80 min (serum protein [2]; centrifugation time 80 minutes, 500 g) of 0.37, a fraction unbound (serum protein [3]; sera from 9 patients dialyzed at 20° C.) of 0.033 and a fraction unbound (serum protein [3]; sera from 9 patients dialyzed at 37° C.) of 0.031.
For rifampicillin, the “changes in the serum protein binding of digitoxin” value (shortened to “changes”) (serum protein [4]) was “None of these induced significant changes”.
In the case of heparin, the “changes” value (serum protein [4]) is reported as “None of these induced significant changes”.
In the case of `O=C1NC(=O)C(c2ccccc2)(c2ccccc2)N1` [phenytoin], the “changes” value (serum protein [4]) is reported as “None of these induced significant changes”.
With `CCN(CC)CCNC(=O)c1ccc(N)cc1` [procainamide] the “changes” value (serum protein [4]) was “None of these induced significant changes”.
In the case of `CC1O[C@@H](O[C@H]2C(O)C[C@H](O[C@H]3C(O)C[C@H](OC4CC[C@@]5(C)[C@H](CC[C@@H]6[C@@H]5C[C@@H](O)[C@]5(C)[C@@H](C7=CC(=O)OC7)CC[C@]65O)C4)OC3C)OC2C)CC(O)[C@@H]1O` (stereo partly shown) [Digoxin], the “PR interval on the surface EKG (conduction through the AV node)” value (guinea pig) is reported as “progressive increase in PR interval” and the “cardiac contractibility as measured by the strain-gauge arch” value (guinea pig) is reported as “increase in cardiac contractibility”.
